{"source": "patent US20260218439A1", "about": "“METHOD OF TREATING OR REDUCING CANCER COMPRISING ADMINISTERING A COMPOUND 3-(BENZO[D][1,3]DIOXOL-5-YL)-7-(1-HYDROXYPROPAN-2-YL)-1-(1H-INDOLE-3-YL)-6,7-DIHYDRO-3H-OXAZOLE[3,4-A]PYRAZINE-5,8-DIONE” (BIOLAB SANUS FARMACEUTICA LTDA, priority 2019, published 2026)", "key": {"PDE5A1": {"target": "T1, PDE5A1 (Homo sapiens, UniProt O76074)", "T1 construct": "purchased BPS Bioscience 60350", "test": "PDE5A1 fluorescence polarization enzyme assay (BPS Bioscience kit 60350)", "format": "biochemical", "description": "The evaluation of the compound is studied using BPS Bioscience enzyme assay kit (catalogue 60350). The PDE5A1 Assay kit is designed for identification of PDE5A1 inhibitors using fluorescence polarization. The assay is based on the binding of a fluorescent nucleotide monophosphate generated by PDE5A1 enzyme to the binding agent.\nIn this methodology only two simple steps on a microtiter plate are required for PDE5A1 reactions. First, the fluorescently labeled cGMP is incubated with PDE5A1 for 1 hour. Second, the binding agent is added to the reaction mixture to produce a change in fluorescent polarization that can then be measured using a fluorescence reader equipped for the measurement of fluorescence polarization.\nFor the assay the storage reagent FAM-Cyclic-3′,5′-GMP (20 μM) is diluted with PDE assay buffer to achieve the solution with a […]; the PDE5A1 enzyme is thawed and diluted with the PDE buffer obtaining a PDE5A1 solution at 10 μg/mL.\nThe assay compounds are diluted with DMSO 100% (v/v) at a concentration of 1000 μM and subsequently diluted in a Sodium chloride 0.9% solution to obtain a curve of concentrations of interest for the assay. The compounds are diluted in concentrations of: 10 nM, 30 nM, 50 nM, 100 nM, 300 nM, 500 nM, 1 μM, 3 μM, 5 μM (DMSO 10% v/v).\nThe study is comprised of groups: (i) substrate control; (ii) positive control (KIT); (iii) samples in several concentrations; (iv) tadalafil (comparative control). Each parameter (group) is triple labeled.\n• For the 4 groups there is added, to each microplate well, […] of the FAM-Cyclic-3′ reagent, 5′-GMP (200 μM). • To the substrate control group there is added, to each well, […] of vehicle (DMSO 10% v/v) and […] PDE Buffer. • To the positive control group there is added, to each well, […] of vehicle (DMSO 10% v/v). • To the tadalafil group: there is added 5 mL of the solution in the concentrations of interest. • To the test group there is added 5 mL of the sample solution (test compound)\nOBSERVATION: the parameters tested are in triplicate.\nTo begin the reaction, add […] of the PDE5A1 enzyme (diluted as described above) to the microplate wells designated as Positive Control and Samples (test and tadalafil), and incubate the microplate, for 1 hour, at a temperature of 25° C.\nAfter the incubation period, the reaction is interrupted by the addition, in all the wells, of […] of the binding agent solution and the microplate is incubated for 30 minutes, under light stirring, at room temperature. The reading of the microplate is carried out in Polarized Fluorescence (475-495 nm—excitation and 518-538 nm—emission detection) 500 nanoseconds integration time."}, "[1]": {"system": "PC3-human prostate cancer cells", "test": "Cell proliferation inhibition (CYQuant intracellular DNA), PC3", "format": "cell-based", "settings": "for % Cell Proliferation Inhibition (intracellular DNA) PC-3 (average ± E.P.M.): 72 hours", "description": "(§1) For the execution of the assay, the compounds are diluted in DMSO 100% (v/v) at a concentration of 1000 μM and subsequently diluted in a Sodium Chloride solution 0.9% to obtain the storage solutions of interest for use in the assays. The final concentration of interest will be directly diluted in the cell culture medium. For the assay there are used the following tumor cell lineages: PC3-human prostate cancer cells; LNCAP-human prostate cancer cells; DU145-human prostate cancer; MNK45-human gastric cancer and RT4-human bladder cancer cells. The tumor cell lineages are maintained in culture according to standard procedures established by the Cell Bank of Rio de Janeiro (lineage place of origin) Procedure: • For the assay, the tumor cells are seeded in the concentration of 10.000 cells per well (final volume of the reaction of […]), the plate is incubated for 8 hours, for the cells to adhere to the wall of the wells. After this period, the plate is divided in groups: • (a) test group: […] of the samples were added (test compound) in the concentrations of interest; • (b) positive control group: […] of culture medium were added (100% of cell proliferation); • (c) negative control group: 200 mL of culture medium and […] of the vehicle used were added to dilute the compounds (without cells—zero proliferation); • (d) control group: […] were added of the vehicle used to dilute the compounds. This group is important to evaluate whether the vehicle used interferes in the cell proliferation. OBSERVATION: the treatment with the concentrations of samples (test compounds) and of the controls are carried out in triplicate. • Incubate the plate for 72 hours in a CO2 kiln at 37° C. • After the incubation period, add […] of the solution with DNA marker from the CYQuant Kit and incubate the plate, for 60 minutes, in a CO2 incubator at 37° C. The fluorescence intensity is determined using a fluorescence microplate reader with 485 nm excitation and 530 nm emission detection. The results obtained were normalized relative to the positive control group (100% proliferation). For the compounds there are prepared the storage solutions in the concentrations of: 100 nM, 1 μM, 3 μM, 5 μM, 10 μM and 30 μM (DMSO 10% v/v). While the final concentrations in the test are of: 10 nM, 100 nM, 300 nM, 500 nM, 1000 nM and 3000 nM (in DMSO 1% v/v)."}, "[2]": {"system": "LNCAP-human prostate cancer cells", "test": "Cell proliferation inhibition (CYQuant intracellular DNA), LNCAP", "format": "cell-based", "settings": "for % Cell Proliferation Inhibition (intracellular DNA) LNCAP (average ± E.P.M.): 72 hours", "description": "as §1"}, "[3]": {"system": "DU145-human prostate cancer", "test": "Cell proliferation inhibition (CYQuant intracellular DNA), DU145", "format": "cell-based", "settings": "for % Cell Proliferation Inhibition (intracellular DNA) DU145 (average ± E.P.M.): 72 hours", "description": "as §1"}, "[4]": {"system": "MNK45-human gastric cancer", "test": "Cell proliferation inhibition (CYQuant intracellular DNA), MNK45", "format": "cell-based", "settings": "72 hours", "description": "as §1"}, "[5]": {"system": "RT4-human bladder cancer cells", "test": "Cell proliferation inhibition (CYQuant intracellular DNA), RT4", "format": "cell-based", "settings": "for % Cell Proliferation Inhibition (intracellular DNA) RT4 (average ± E.P.M.): 72 hours", "description": "as §1"}}, "data": [{"substance": "(R)-3-(benzo [d][1, 3]dioxol-5-yl)-7-((S)-1-hydroxypropan-2-yl)-1-(1H-indole-3-yl)-6, 7-dihydro-3H-oxazole [3, 4-a]pyrazine-5, 8-dione with (S)-3-(benzo [d][1,3]dioxol-5-yl)-7-((S)-1-hydroxypropan-2-yl)-1-(1H-indole-3-yl)-6, 7-dihydro-3H-oxazole [3, 4-a]pyrazine-5, 8-dione [BL-241]", "values": [{"measurement": "% of Inhibition (PDE5A1)", "setting": "PDE5A1; compound 500 nM", "value": 57, "unit": "%"}, {"measurement": "% of Inhibition (PDE5A1)", "setting": "PDE5A1; compound 1000 nM", "value": 71, "unit": "%"}, {"measurement": "% of Inhibition (PDE5A1)", "setting": "PDE5A1; compound 3000 nM", "value": 88, "unit": "%"}, {"measurement": "PDE5 inhibition (result in words)", "setting": "PDE5A1; concentration series", "value": "capable of inhibiting the PDE5 in a dose-dependent manner"}, {"measurement": "antiproliferative effect (result in words)", "setting": "[1]; PC3 prostate cancer tumor lineage", "value": "presented antiproliferative effect"}, {"measurement": "% Cell Proliferation Inhibition (intracellular DNA) PC-3 (average ± E.P.M.)", "setting": "[1]; PC-3, 10 nM", "value": "27 ± 11", "unit": "%"}, {"measurement": "% Cell Proliferation Inhibition (intracellular DNA) PC-3 (average ± E.P.M.)", "setting": "[1]; PC-3, 100 nM", "value": "36 ± 7", "unit": "%"}, {"measurement": "% Cell Proliferation Inhibition (intracellular DNA) PC-3 (average ± E.P.M.)", "setting": "[1]; PC-3, 300 nM", "value": "42 ± 6", "unit": "%"}, {"measurement": "% Cell Proliferation Inhibition (intracellular DNA) PC-3 (average ± E.P.M.)", "setting": "[1]; PC-3, 500 nM", "value": "46 ± 1", "unit": "%"}, {"measurement": "% Cell Proliferation Inhibition (intracellular DNA) PC-3 (average ± E.P.M.)", "setting": "[1]; PC-3, 1000 nM", "value": "33 ± 3", "unit": "%"}, {"measurement": "antiproliferative effect (result in words)", "setting": "[2]; LNCAP prostate cancer tumor lineage", "value": "presented antiproliferative effect"}, {"measurement": "% Cell Proliferation Inhibition (intracellular DNA) LNCAP (average ± E.P.M.)", "setting": "[2]; 10 nM", "value": "25 ± 2", "unit": "%"}, {"measurement": "% Cell Proliferation Inhibition (intracellular DNA) LNCAP (average ± E.P.M.)", "setting": "[2]; 100 nM", "value": "37 ± 3", "unit": "%"}, {"measurement": "% Cell Proliferation Inhibition (intracellular DNA) LNCAP (average ± E.P.M.)", "setting": "[2]; 300 nM", "value": "38 ± 4", "unit": "%"}, {"measurement": "% Cell Proliferation Inhibition (intracellular DNA) LNCAP (average ± E.P.M.)", "setting": "[2]; 500 nM", "value": "44 ± 2", "unit": "%"}, {"measurement": "% Cell Proliferation Inhibition (intracellular DNA) LNCAP (average ± E.P.M.)", "setting": "[2]; 1000 nM", "value": "34 ± 6", "unit": "%"}, {"measurement": "% Cell Proliferation Inhibition (intracellular DNA) DU145 (average ± E.P.M.)", "setting": "[3]; DU145, 100 nM", "value": "33 ± 8", "unit": "%"}, {"measurement": "% Cell Proliferation Inhibition (intracellular DNA) DU145 (average ± E.P.M.)", "setting": "[3]; DU145, 300 nM", "value": "17 ± 3", "unit": "%"}, {"measurement": "% Cell Proliferation Inhibition (intracellular DNA) DU145 (average ± E.P.M.)", "setting": "[3]; DU145, 500 nM", "value": "18 ± 2", "unit": "%"}, {"measurement": "% Cell Proliferation Inhibition (intracellular DNA) DU145 (average ± E.P.M.)", "setting": "[3]; DU145, 1000 nM", "value": "22 ± 2", "unit": "%"}, {"measurement": "% Cell Proliferation Inhibition (intracellular DNA) DU145 (average ± E.P.M.)", "setting": "[3]; DU145, 3000 nM", "value": "43 ± 5", "unit": "%"}, {"measurement": "antiproliferative effect (result in words)", "setting": "[3]; DU145 prostate cancer tumor lineage", "value": "presented antiproliferative effect"}, {"measurement": "% Cell Proliferation Inhibition (intracellular DNA) MNK45 (average ± E.P.M.)", "setting": "[4]; MNK45, 100 nM", "value": "25 ± 1", "unit": "%"}, {"measurement": "% Cell Proliferation Inhibition (intracellular DNA) MNK45 (average ± E.P.M.)", "setting": "[4]; MNK45, 300 nM", "value": "10 ± 2", "unit": "%"}, {"measurement": "% Cell Proliferation Inhibition (intracellular DNA) MNK45 (average ± E.P.M.)", "setting": "[4]; MNK45, 500 nM", "value": "2 ± 1", "unit": "%"}, {"measurement": "% Cell Proliferation Inhibition (intracellular DNA) MNK45 (average ± E.P.M.)", "setting": "[4]; MNK45, 1000 nM", "value": "4 ± 1", "unit": "%"}, {"measurement": "% Cell Proliferation Inhibition (intracellular DNA) MNK45 (average ± E.P.M.)", "setting": "[4]; MNK45, 3000 nM", "value": "20 ± 3", "unit": "%"}, {"measurement": "% Cell Proliferation Inhibition (intracellular DNA) RT4 (average ± E.P.M.)", "setting": "[5]; RT4, 100 nM", "value": "28 ± 6", "unit": "%"}, {"measurement": "% Cell Proliferation Inhibition (intracellular DNA) RT4 (average ± E.P.M.)", "setting": "[5]; RT4, 300 nM", "value": "5 ± 2", "unit": "%"}, {"measurement": "% Cell Proliferation Inhibition (intracellular DNA) RT4 (average ± E.P.M.)", "setting": "[5]; RT4, 500 nM", "value": "4 ± 2", "unit": "%"}, {"measurement": "% Cell Proliferation Inhibition (intracellular DNA) RT4 (average ± E.P.M.)", "setting": "[5]; RT4, 1000 nM", "value": "11 ± 8", "unit": "%"}, {"measurement": "% Cell Proliferation Inhibition (intracellular DNA) RT4 (average ± E.P.M.)", "setting": "[5]; RT4, 3000 nM", "value": "57 ± 4", "unit": "%"}, {"measurement": "antiproliferative effect (result in words)", "setting": "[5]; RT4 bladder cancer tumor lineage", "value": "presented antiproliferative effect"}]}]}
